Reference: patent US5827849A, “Cyclic dericatives, pharmaceutical compositions containing these compounds and processes for preparing them” (Karl Thomae GmbH, priority 1993, dated 1998)
Structures can show the parent of a compound that is named as a salt.

Experiments:
Human thrombocytes = assay: Inhibition of the binding of 3H-BIBU 52 to human thrombocytes (platelets); settings: human thrombocytes in plasma; 3H-BIBU 52 5 nM; 20 minutes, ambient temperature; read-out: 3H-BIBU 52-binding test IC50
Procedure: 1. Inhibition of the binding of ^3 H-BIBU 52 to Human thrombocytes […] Case 5/1093-FL) and various concentrations of the test substance. The free and bound ligand are separated by centrifuging and quantitatively measured by scintillation counting. From the measurements obtained the inhibition of ^3 H-BIBU 52 binding caused by the test substance is determined. In order to do this, donor blood is taken from an anticubital vein and anti-coagulated with trisodium citrate (final concentration 13 mM). The blood is centrifuged for 10 minutes at 170×g and the supernatant platelet-rich plasma (PRP) is removed. The remaining blood is centrifuged vigorously once more in order to recover plasma. The PRP is diluted with autologous plasma 1:10. 750 μl are incubated for 20 minutes at ambient temperature with 50 μl of physiological saline solution, 100 μl of test substance solution, 50 μl of ^14 C-sucrose (3700 Bq) and 50 μl of ^3 H-BIBU 52 (final concentration: 5 nM). In order to measure the non specific binding, 5 μl of BIBU 52 (final concentration 30 μM) are used instead of the test substance. […] The pellet is dissolved in 500 μl of 0.2N NaOH, 450 μl are mixed with 2 ml of scintallator and 25 μl of 5N HCl, and measured. The residual plasma remaining in the pellet is determined from the ^14 C-content, and the bound ligand is determined from the ^3 H-measurement. After substracting the non specific binding, the pellet activity is plotted against the concentration of the test substance and the concentration for 50% inhibition of binding is determined. A. Inhibition of the binding of ^3 H-BIBU 52 to human platelets […] The free and bound ligand is separated by centrifugation and determined quantitatively by scintillation counting. The inhibition of ^3 H-BIBU 52 binding by the test substance is determined from the measurements. For this purpose, donor blood is taken from an antecubital vein and anticoagulated with trisodium citrate (final concentration 13 mM). The blood is centrifuged at 170×g for 10 minutes, and the supernatant platelet-rich plasma (PRP) is removed. The remaining blood is thoroughly centrifuged once again to obtain plasma. The PRP is diluted 1:10 with autologous plasma. […] are incubated with […] of physiological saline, […] of test substance solution, […] of ^14 C-sucrose (3700 Bq) and 50 ml of ^3 H-BIBU 52 (final concentration: 5 nM) at room temperature for 20 minutes. To measure the nonspecific binding, 5 ml of BIBU 52 (final concentration: […]) are used in place of the test substance. […] The pellet is dissolved in 500 ml of 0.2N NaOH, and 450 ml are mixed with 2 ml of scintillator and 25 ml of 5N HCl and measured. The remaining plasma still present in the pellet is determined from the ^14 C content, and the bound ligand is determined from the ^3 H measurement. After subtraction of the nonspecific binding, the activity in the pellet is plotted against the concentration of test substance, and the concentration for 50% inhibition of binding is found.

[1] = test system: Thrombocyte aggregation (collagen-induced); assay: Collagen-induced platelet aggregation in platelet-rich plasma (Born and Cross method); assay type: cell-based; settings: Homo sapiens, 10 min, platelet-rich plasma of healthy volunteers, 10 minutes incubation at 37° C., compounds of general formula I, read-out: Inhibition of platelet aggregation EC50
Procedure: 2. Antithrombotic activity Thrombocyte aggregation is measured using the Born and Cross method (J. Physiol. 170: 397 (1964)) in platelet-rich plasma taken from healthy volunteers. To inhibit coagulation the blood is mixed with 3.14% sodium citrate in a ratio by volume of 1:10. Collagen-induced aggregation The pattern of the decrease in optical density of the platelet suspension is photometrically measured and recorded after the addition of the aggregation-triggering substance. The rate of aggregation is determined from the angle of inclination of the density curve. The point on the curve where there is maximum light transmittance is used to calculate the optical density. The amount of collagen used is as small as possible but sufficient to produce an irreversible reaction curve. Standard commercial collagen produced by Hormonchemie of Munich is used. Before the addition of the collagen the plasma is incubated for 10 minutes with the test substance at 37° C. From the measurements obtained, an EC50 is determined graphically, indicating a 50% change in the optical density in terms of the inhibition of aggregation. B. Antithrombotic effect Platelet aggregation is measured by the method of Born and Cross (J. Physiol. 170, 397 (1964)) in platelet-rich plasma from healthy test subjects. For anticoagulation, sodium citrate 3.14% is added to the blood in the ratio 1:10 by volume. Collagen-induced aggregation The course of the decrease in optical density of the platelet suspension is measured and recorded photometrically after addition of the aggregation-inducing substance. The rate of aggregation is established from the angle of inclination of the density plot. The point on the plot at which the transmission of light is a maximum is used to calculate the optical density. The amount of collagen is chosen to be as small as possible but sufficient for the reaction plot to have an irreversible course. The collagen commercially obtainable from Hormonchemie, Munich, is used. Before the addition of collagen the plasma is in each case incubated with the substance at 37° C. for 10 minutes. An EC50 which relates to a 50% change in the optical density in the sense of inhibition of aggregation is determined graphically from the measured results.

mice = assay: Tolerance after intravenous administration in mice; assay type: in vivo; settings: mice (three), 30 mg/kg
[2] = test system: collagen-induced thrombocyte aggregation; assay: Inhibition of collagen-induced thrombocyte aggregation ex vivo after oral administration; assay type: in vivo; settings: Rhesus monkeys; oral administration of 1 mg/kg

`CN1CCc2ccc(N3CCN(c4ccc(CCC(=O)O)cc4)C3=O)cc2CC1` [8(1), 1-[4-(2-carboxyethyl)phenyl]-3-(3-methyl-2,3,4,5-tetrahydro-1H-3-benzazepin-7-yl)-imidazolidin-2-one-hydrochloride×1.5 water] was tested, and the IC50 (Human thrombocytes) was 36 nM, the EC50 [1] was 150 nM and the “deaths / tolerance after intravenous administration” value (mice) was “none of the three test animals died”.

With `CN1CCc2ccc(N3CCN([C@H]4CC[C@H](CCC(=O)O)CC4)C3=O)cc2CC1.Cl` [Example 19, 1-[trans-4-(2-Carboxyethyl)cyclohexyl]-3-(3-methyl-2,3,4,5-tetrahydro-1H-3-benzazepin-7-yl)-imidazolidin-2-one-hydrochloride] the IC50 (Human thrombocytes) was 59 nM, the EC50 [1] was 230 nM and the “duration of inhibition of collagen-induced thrombocyte aggregation ex vivo” value [2] was “more than 8 hours”. The “deaths / tolerance after intravenous administration” value (mice) was “none of the three test animals died”.
